{
  "source": "the NIST ThermoML archive (doi:10.1021/je034102r)",
  "key": {"[1]": {"conditions": "for mass density: 101.33 kPa, Liquid, Pycnometric method"}, "[2]": {"assay": "Molar enthalpy of transition or fusion", "conditions": "Crystal"}},
  "note": "± gives the expanded uncertainty stated by the source.",
  "data": [
    {"smiles": "CCCCn1cc[n+](C)c1.F[P-](F)(F)(F)(F)F", "note": "[1-butyl-3-methylimidazolium hexafluorophosphate]", "values": [
      {"measurement": "mass density", "setting": "[1]; 298.23 K", "value": "1365.95 ± 0.55", "unit": "kg/m3"},
      {"measurement": "mass density", "setting": "[1]; 302.89 K", "value": "1362.05 ± 0.56", "unit": "kg/m3"},
      {"measurement": "mass density", "setting": "[1]; 307.9 K", "value": "1357.94 ± 0.57", "unit": "kg/m3"},
      {"measurement": "mass density", "setting": "[1]; 312.67 K", "value": "1353.99 ± 0.58", "unit": "kg/m3"},
      {"measurement": "mass density", "setting": "[1]; 317.58 K", "value": "1349.92 ± 0.59", "unit": "kg/m3"},
      {"measurement": "mass density", "setting": "[1]; 322.33 K", "value": "1346.02 ± 0.61", "unit": "kg/m3"},
      {"measurement": "mass density", "setting": "[1]; 327.16 K", "value": "1342.02 ± 0.62", "unit": "kg/m3"},
      {"measurement": "mass density", "setting": "[1]; 344.23 K", "value": "1328.03 ± 0.65", "unit": "kg/m3"},
      {"measurement": "mass density", "setting": "[1]; 348.93 K", "value": "1324.35 ± 0.67", "unit": "kg/m3"},
      {"measurement": "mass density", "setting": "[1]; 353.47 K", "value": "1320.69 ± 0.68", "unit": "kg/m3"},
      {"measurement": "Triple point temperature", "setting": "[1]; Crystal", "value": "283.51 ± 0.12", "unit": "K"},
      {"measurement": "Glass transition temperature", "setting": "[1]; Glass, Adiabatic calorimetry", "value": "-82.5 ± 2", "unit": "°C"},
      {"measurement": "Molar enthalpy of transition or fusion", "setting": "[2]", "value": "4.685 ± 0.01", "unit": "kcal/mol"}
    ]}
  ]
}
